From ChEMBL document CHEMBL4477234, “Potent Suppressive Effects of 1-Piperidinylimidazole Based Novel P2X7 Receptor Antagonists on Cancer Cell Migration and Invasion” (J Med Chem, 2016)
Calls of active or inactive are those of the source. The rule behind the calls is not given here.

Key:
P2X purinoceptor 7 [1] = target: T1, P2X purinoceptor 7 (Homo sapiens, UniProt Q99572); assay: Antagonist activity at human P2X7 receptor
T1 sequence (Q99572 whole entry): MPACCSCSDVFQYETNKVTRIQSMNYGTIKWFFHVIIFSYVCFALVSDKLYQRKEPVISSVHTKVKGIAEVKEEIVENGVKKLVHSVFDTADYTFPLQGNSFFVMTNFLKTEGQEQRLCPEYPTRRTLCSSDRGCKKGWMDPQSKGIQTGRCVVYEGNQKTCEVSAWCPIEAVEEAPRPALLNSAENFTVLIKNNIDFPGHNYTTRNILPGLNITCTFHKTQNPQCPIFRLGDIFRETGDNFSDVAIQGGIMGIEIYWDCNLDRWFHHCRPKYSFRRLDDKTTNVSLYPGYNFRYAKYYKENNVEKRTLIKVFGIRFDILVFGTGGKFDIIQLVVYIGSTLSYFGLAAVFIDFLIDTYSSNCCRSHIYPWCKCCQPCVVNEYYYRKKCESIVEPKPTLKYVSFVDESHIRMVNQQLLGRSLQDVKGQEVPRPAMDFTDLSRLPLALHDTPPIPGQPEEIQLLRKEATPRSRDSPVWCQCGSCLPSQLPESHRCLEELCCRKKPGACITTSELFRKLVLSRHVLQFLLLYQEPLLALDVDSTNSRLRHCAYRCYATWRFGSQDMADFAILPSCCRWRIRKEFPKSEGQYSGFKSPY

MDA-MB-231 [2] = assay: Antimigratory activity against human MDA-MB-231 cells xenografted in zebrafish assessed as inhibition of cell dissemination and invasion at 10 uM measured after 4 days by fluorescence microscopic analysis relative to control; type: functional, cell-based
[3] = target: T2, P2X purinoceptor 1 (Homo sapiens) (UniProt P51575); assay: Antagonist activity at human P2X1 receptor expressed in human 1321N1 cells assessed as inhibition of ATP-induced calcium influx at 1 uM preincubated for 30 mins prior to ATP-stimulation by calcium influx assay; type: cell-based
T2 sequence (whole entry): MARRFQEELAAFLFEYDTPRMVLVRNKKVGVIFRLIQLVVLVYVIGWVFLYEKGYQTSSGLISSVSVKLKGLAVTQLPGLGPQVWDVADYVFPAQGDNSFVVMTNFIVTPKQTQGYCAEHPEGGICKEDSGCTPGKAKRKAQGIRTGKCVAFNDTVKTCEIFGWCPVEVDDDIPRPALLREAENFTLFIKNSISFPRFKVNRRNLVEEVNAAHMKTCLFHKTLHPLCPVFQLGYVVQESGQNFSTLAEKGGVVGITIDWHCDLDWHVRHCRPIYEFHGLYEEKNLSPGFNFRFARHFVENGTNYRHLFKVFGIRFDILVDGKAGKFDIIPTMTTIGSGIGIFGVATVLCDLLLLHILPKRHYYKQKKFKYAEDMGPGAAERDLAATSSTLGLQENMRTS

Homo sapiens = species: Homo sapiens; assay: Selectivity ratio, ratio of IC50 for human P2X3 receptor expressed in human 1321N1 cells to human P2X7 receptor expressed in HEK293 cells; type: cell-based
MDA-MB-231 [4] = assay: Antiinvasive activity against human MDA-MB-231 cells measured after 48 hrs by transwell invasion assay; type: functional, cell-based; conditions: MDA-MB-231, 48 h
MDA-MB-231 [5] = assay: Cytotoxicity against human MDA-MB-231 cells assessed as reduction in cell viability at 2.5 to 10 uM measured after 48 hrs by WST-1 cell viability assay; type: cell-based; conditions: mda-mb-231, 48 h
[6] = Toxicity in zebrafish assessed as induction of teratogenic developmental toxicity at 10 uM; set-up: species or system Danio rerio; conditions: in vivo
[7] = target: T3, P2X purinoceptor 4 (Homo sapiens) (UniProt Q99571); assay: Antagonist activity at human P2X4 receptor expressed in human 1321N1 cells assessed as inhibition of ATP-induced calcium influx at 1 uM preincubated for 30 mins prior to ATP-stimulation by calcium influx assay; type: cell-based
T3 sequence (whole entry): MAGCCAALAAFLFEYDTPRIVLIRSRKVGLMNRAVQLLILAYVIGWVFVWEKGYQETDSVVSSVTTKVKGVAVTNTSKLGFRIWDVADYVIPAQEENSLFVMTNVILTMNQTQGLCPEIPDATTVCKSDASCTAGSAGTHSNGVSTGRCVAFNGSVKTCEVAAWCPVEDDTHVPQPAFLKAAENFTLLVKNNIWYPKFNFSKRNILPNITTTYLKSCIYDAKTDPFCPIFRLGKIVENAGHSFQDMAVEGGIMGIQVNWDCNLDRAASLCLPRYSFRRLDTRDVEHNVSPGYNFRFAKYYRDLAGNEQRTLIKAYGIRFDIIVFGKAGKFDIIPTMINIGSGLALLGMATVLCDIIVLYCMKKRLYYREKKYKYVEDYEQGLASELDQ

P2X purinoceptor 7 [8] = target: T1, P2X purinoceptor 7; assay: Antagonist activity at human P2X7 receptor in LPS/IFN-gamma-differentiated human THP-1 cells assessed as suppression of BzATP-stimulated IL-1beta release per-incubated for 30 mins before BzATP addition and measured after 30 mins by ELISA; type: cell-based
P2X purinoceptor 3 [9] = target: T4, P2X purinoceptor 3 (Homo sapiens, UniProt P56373); assay: Antagonist activity at human P2X3 receptor expressed in human 1321N1 cells assessed as inhibition of ATP-induced calcium influx preincubated for 30 mins prior to ATP-stimulation by calcium influx assay; type: cell-based
T4 sequence (P56373 whole entry): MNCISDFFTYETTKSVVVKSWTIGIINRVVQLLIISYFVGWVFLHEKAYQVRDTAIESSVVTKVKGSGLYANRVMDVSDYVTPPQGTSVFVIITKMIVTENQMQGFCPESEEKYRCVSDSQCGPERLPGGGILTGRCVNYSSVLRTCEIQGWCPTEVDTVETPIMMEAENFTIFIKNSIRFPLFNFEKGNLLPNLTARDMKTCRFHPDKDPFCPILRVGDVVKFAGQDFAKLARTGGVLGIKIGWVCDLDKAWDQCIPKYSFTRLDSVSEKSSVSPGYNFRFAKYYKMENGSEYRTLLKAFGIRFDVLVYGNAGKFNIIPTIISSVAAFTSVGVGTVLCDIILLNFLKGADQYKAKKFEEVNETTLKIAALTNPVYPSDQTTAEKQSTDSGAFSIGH

[10] = target: T5, P2X purinoceptor 2 (Homo sapiens) (UniProt Q9UBL9); assay: Antagonist activity at human P2X2 receptor expressed in human 1321N1 cells assessed as inhibition of ATP-induced calcium influx at 1 uM preincubated for 30 mins prior to ATP-stimulation by calcium influx assay; type: cell-based
T5 sequence (whole entry): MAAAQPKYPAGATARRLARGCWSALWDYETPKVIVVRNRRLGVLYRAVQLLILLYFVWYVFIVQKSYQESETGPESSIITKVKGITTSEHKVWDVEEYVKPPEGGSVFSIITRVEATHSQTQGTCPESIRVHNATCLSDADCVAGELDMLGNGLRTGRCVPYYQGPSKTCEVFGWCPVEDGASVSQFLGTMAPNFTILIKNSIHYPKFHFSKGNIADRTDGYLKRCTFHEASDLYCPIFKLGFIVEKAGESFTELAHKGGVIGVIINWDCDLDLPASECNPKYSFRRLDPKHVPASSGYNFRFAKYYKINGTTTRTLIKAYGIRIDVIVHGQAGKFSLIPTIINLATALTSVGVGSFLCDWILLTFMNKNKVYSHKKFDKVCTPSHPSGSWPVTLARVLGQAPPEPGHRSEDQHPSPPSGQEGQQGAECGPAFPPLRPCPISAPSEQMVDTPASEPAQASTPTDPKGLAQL

P2X purinoceptor 7 [11] = target: T1, P2X purinoceptor 7; assay: Antagonist activity at human P2X7 receptor expressed in HEK293 cells assessed as inhibition of BzATP-induced EtBr uptake measured after 2 hrs by fluorescence analysis; type: cell-based
P2X purinoceptor 3 [12] = target: T6, P2X purinoceptor 3 (Rattus norvegicus, UniProt P49654); assay: Antagonist activity at P2X3 receptor in Wistar rat DRG neurons assessed as inhibition of alpha/beta-meATP-induced currents preincubated for 5 mins prior to alpha/beta-meATP-stimulation measured at every sec for 5 mins by whole cell patch-clamp assay
T6 sequence (P49654 whole entry): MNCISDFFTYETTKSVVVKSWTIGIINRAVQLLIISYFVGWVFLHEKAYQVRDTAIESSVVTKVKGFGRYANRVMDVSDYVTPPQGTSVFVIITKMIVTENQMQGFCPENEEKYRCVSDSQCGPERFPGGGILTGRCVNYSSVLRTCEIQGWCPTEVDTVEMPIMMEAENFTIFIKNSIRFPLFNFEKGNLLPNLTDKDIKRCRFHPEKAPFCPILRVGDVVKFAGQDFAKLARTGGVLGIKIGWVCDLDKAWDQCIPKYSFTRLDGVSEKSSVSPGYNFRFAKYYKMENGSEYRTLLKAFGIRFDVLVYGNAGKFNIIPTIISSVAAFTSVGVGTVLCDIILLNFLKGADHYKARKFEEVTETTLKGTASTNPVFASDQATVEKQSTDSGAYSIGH

P2X purinoceptor 1 = target: T7, P2X purinoceptor 1 (Rattus norvegicus, UniProt P47824); assay: Antagonist activity at P2X1 receptor in rat vas deferens assessed as inhibition of alpha/beta-meATP-induced calcium influx
T7 sequence (P47824 whole entry): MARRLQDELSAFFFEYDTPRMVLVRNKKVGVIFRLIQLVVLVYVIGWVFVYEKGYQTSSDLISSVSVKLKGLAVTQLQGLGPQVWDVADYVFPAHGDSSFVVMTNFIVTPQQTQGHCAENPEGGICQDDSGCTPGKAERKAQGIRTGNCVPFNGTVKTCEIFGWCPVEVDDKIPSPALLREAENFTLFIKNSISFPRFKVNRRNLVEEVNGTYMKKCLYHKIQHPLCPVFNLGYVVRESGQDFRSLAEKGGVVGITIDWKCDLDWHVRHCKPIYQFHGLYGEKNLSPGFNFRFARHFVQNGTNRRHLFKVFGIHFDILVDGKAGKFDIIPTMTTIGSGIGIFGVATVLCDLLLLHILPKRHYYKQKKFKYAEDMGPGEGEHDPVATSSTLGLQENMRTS

P2X purinoceptor 2 = target: T8, P2X purinoceptor 2 (Homo sapiens, UniProt Q9UBL9); assay: Antagonist activity at human P2X2 receptor expressed in human 1321N1 cells assessed as inhibition of ATP-induced calcium influx preincubated for 30 mins prior to ATP-stimulation by calcium influx assay; type: cell-based
T8 sequence (Q9UBL9 whole entry): T5 sequence (whole entry)

[13] = target: T3, P2X purinoceptor 4 (Homo sapiens); assay: Antagonist activity at human P2X4 receptor expressed in human 1321N1 cells assessed as inhibition of ATP-induced calcium influx at 10 uM preincubated for 30 mins prior to ATP-stimulation by calcium influx assay; type: cell-based
[14] = target: T9, P2X purinoceptor 3 (Homo sapiens) (UniProt P56373); assay: Antagonist activity at human P2X3 receptor expressed in human 1321N1 cells assessed as inhibition of ATP-induced calcium influx at 1 uM preincubated for 30 mins prior to ATP-stimulation by calcium influx assay; type: cell-based
T9 sequence (whole entry): T4 sequence (P56373 whole entry)

MDA-MB-231 [15] = assay: Cytotoxicity against human MDA-MB-231 cells assessed as reduction in cell viability at 10 uM measured after 48 hrs by WST-1 cell viability assay; type: cell-based; conditions: mda-mb-231, 48 h

| Structure (SMILES) | inhibition (MDA-MB-231 [2]) | inhibition [3] [%] | Ratio IC50 (Homo sapiens) | IC50 (MDA-MB-231 [4]) [µM] | Activity [6] | inhibition [7] [%] | IC50 (P2X purinoceptor 7 [8]) [nM] | IC50 (P2X purinoceptor 3 [9]) [nM] | inhibition [10] [%] | IC50 (P2X purinoceptor 7 [11]) [nM] | further results |
| --- | --- | --- | --- | --- | --- | --- | --- | --- | --- | --- | --- |
| COc1ccc(CC(=O)NC(N/C(=N/C#N)Nc2cccc3ncccc23)C(C)(C)C)cc1OC (stereo not given) | – | – | – | – | – | – | – | – | – | – | IC50 (P2X purinoceptor 7 [1]): 90 nM |
| CN(C)c1ccc(C(=O)N2CCC(n3cncc3-c3ccc(OS(=O)(=O)c4cccc(C(=O)NC5CC5)c4)cc3)CC2)cc1 | Active | 22 | 1000 to 7000 | 3.63 | Non-Toxic | 7 | 1.03 | 910 | 7 | 0.49 | Activity (MDA-MB-231 [5]): Non-Toxic |
| O=C(Nc1cc(C(=O)Nc2ccc(S(=O)(=O)O)cc2)cc(C(=O)Nc2ccc(S(=O)(=O)O)cc2)c1)Nc1cc(C(=O)Nc2ccc(S(=O)(=O)O)cc2)cc(C(=O)Nc2ccc(S(=O)(=O)O)cc2)c1 | – | – | – | – | – | – | – | 1580 | – | – | IC50 (P2X purinoceptor 3 [12]): 527 nM |
| O=C1NC(=O)N(C2CCN(C(=O)c3ccc(Cl)c(C(F)(F)F)c3)CC2)C1Cc1ccc(OS(=O)(=O)c2cccc3cnccc23)cc1 (stereo not given) | – | 28 | – | – | – | 0 | 54 | 600 | 5 | – | – |
| Cc1ccc(C(=O)Nc2ccc(S(=O)(=O)O)c3cc(S(=O)(=O)O)cc(S(=O)(=O)O)c23)cc1NC(=O)c1cccc(NC(=O)Nc2cccc(C(=O)Nc3cc(C(=O)Nc4ccc(S(=O)(=O)O)c5cc(S(=O)(=O)O)cc(S(=O)(=O)O)c45)ccc3C)c2)c1 [SURAMIN] | – | – | – | – | – | – | – | – | – | – | IC50 (P2X purinoceptor 1): 4.68 µM |
| CN(C)c1ccc(C(=O)N2CCN(c3cc(=O)[nH]c(=O)n3Cc3ccc(OS(=O)(=O)c4cccc5cnccc45)cc3)CC2)cc1 | Active | 23 | 1000 to 7000 | 2.59 | Non-Toxic | 6 | 1.33 | 2660 | 2 | 1.53 | Activity (MDA-MB-231 [5]): Non-Toxic |
| Nc1c(S(=O)(=O)O)cc(Nc2ccc(S(=O)(=O)O)c(Nc3nc(Cl)nc(Cl)n3)c2)c2c1C(=O)c1ccccc1C2=O | – | – | – | – | – | – | – | – | – | – | IC50 (P2X purinoceptor 2): 692 nM; inhibition [13]: 3% |
| CS(=O)(=O)c1ccc(C(=O)N2CCC(c3nc4cc(OS(=O)(=O)c5cccc6cnccc56)ccc4[nH]3)CC2)cc1 | inactive | 16 | – | – | – | 15 | 43 | – | 7 | 7 | inhibition [14]: 3% |
| CN(C)c1ccc(C(=O)N2CCC(n3cncc3-c3ccc(OS(=O)(=O)c4cccc5cnccc45)cc3)CC2)cc1 | Active | 26 | 1000 to 7000 | 2.68 | Non-Toxic | 15 | 2.19 | 800 | 11 | 0.11 | Activity (MDA-MB-231 [15]): 71% |
| O=C(NCC12CC3CC(CC(C3)C1)C2)c1cc(CCCNCCCO)ccc1Cl | Active | – | – | 8.7 | – | – | 0.06 | – | – | – | IC50 (P2X purinoceptor 7 [1]): 10 to 13 nM |
